Laboratory results from patent EP4778933A1 (Chengdu Hyperway Pharmaceuticals Co., Ltd., priority 2023, dated 2025).
Where two headings read alike, the source gives them in different places.

Key:
[1] = test system: human colon cancer GP2D mouse xenograft tumors; experiment: In vivo drug efficacy, GP2D subcutaneous xenograft tumor model; design: species or system Balb/c nude mouse; details: 30 mg/kg, PO; for inhibitory effects on human colon cancer GP2D mouse xenograft tumors: BID, 28 days; for Tumor volume inhibition rate (TGI): GP2D xenograft, BID × 28, day 28
Procedure: A human colon cancer GP2D cell subcutaneous xenograft tumor Balb/c nude mouse model was established. GP2D tumor cells resuspended in DMEM medium were inoculated subcutaneously on the right side of the experimental animal at 1×10^7 + gel/0.1 mL. When the tumor grew to about 150-200 mm^3, administration in groups began, with 5 animals in each group. On the day of the experiment, the animals were given corresponding drugs according to the groups. The first group G1 was set as a solvent group, and 50 mM citrate buffer (pH 5.0) + 10% Captisol was given by gavage alone. The second group G2 was given a 50 mM citrate buffer (pH 5.0) + 10% Captisol of compound 26. The third group G3 was given a 50 mM citrate buffer (pH 5.0) + 10% Captisol of compound 31. Table 5: Study on effect of test substances on animal tumor size in human colon cancer GP2D mouse xenograft tumor model
(§1) During the experiment, the body weight and tumor size of the animals were measured twice a week, and the clinical symptoms of the animals were observed and recorded every day. Each drug administration was based on the most recent weighing of the animals.
(§2) The tumor was measured with a digital vernier caliper to measure the length (a) and width (b). The tumor volume (TV) was calculated using the following formula: TV = a × b^2 /2. [formula]

[2] = test system: KRAS G12D-mediated ERK phosphorylation; experiment: Inhibition of KRAS G12D-mediated ERK phosphorylation in AGS cells (in-cell pERK/GAPDH immunofluorescence); assay type: cell-based; details: AGS cells, 3 h incubation, read-out: Inhibitory activity on ERK phosphorylation (IC50) AGS-G12D
Procedure, shortened: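 AGS, SW480, NCI H358 and KP2 cells were seeded overnight, then treated with compounds for 3 h at 37°C. After fixation, permeabilization and blocking, pERK and GAPDH were immunostained and read by two-colour infrared fluorescence. The pERK/GAPDH ratio was normalized to DMSO and 10 µM reference controls, and IC50 was fitted with a four-parameter logistic model.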

GP2D (KRASG12D) = experiment: 3D cell proliferation inhibition test (CellTiter-Glo 3D, 7 days), GP2D; assay type: cell-based; details: 168 h, read-out: Inhibitory activity on cell proliferation (IC50) GP2D (KRASG12D)
Procedure: (§3) The diluted compounds to be tested were added to 384-well low-adhesion KRAS mutant types (such as GP2D, NCI H358, LoVo, RKN and KP2) of cell culture plates by using a nanoliter pipetting system (LABCYTE, P-0200). Then, the cells were plated and incubated in a 37°C, 5% CO2 incubator for 7 days. Afterward, CellTiter-Glo® 3D reagent was added, and the luminescent values were read by an Envision multifunctional microplate reader (the luminescent signal is proportional to the amount of ATP in the system, and the ATP content directly represents the number of viable cells in the system). Finally, the IC50 values (half-maximal inhibitory concentration) of the compounds were obtained by the XLFIT software using the nonlinear fitting formula.
(§4) • a) The diluted compounds to be tested were added to 384-well low-adhesion KRAS mutant types of cell culture plates by using a nanoliter pipetting system. • b) Cells were seeded into the 384-well plates in a) and then centrifuged at 1000 rpm for 1 min at room temperature, with a final DMSO concentration of compound being 0.5%. The plates were then incubated in a 5% CO2 constant-temperature incubator at 37°C for 7 days. • c) CellTiter-Glo® 3D was added to the 384-well cell culture plates in b), shaken in the dark, and incubated at room temperature. • d) The luminescence values were read by using an Envision multifunctional microplate reader.
The IC50 (half-maximal inhibitory concentration) values of the compounds were obtained by using XLFIT software according to the following nonlinear fitting formula: Y = Bottom + (Top−Bottom)/(1+10^(∧)((LogIC50−X)×HillSlope)) [formula] • X: log value of compound concentration. • Y: inhibition rate (%) [formula] • Negative control: DMSO. • Positive control: Medium only.

[3] = test system: human ovarian cancer RKN mouse xenograft tumors; experiment: In vivo drug efficacy, RKN subcutaneous xenograft tumor model; design: species or system Balb/c nude mice; details: 50 mg/kg, PO; for inhibitory effects on human ovarian cancer RKN mouse xenograft tumors: BID, 28 days; for Tumor volume inhibition rate (TGI): RKN xenograft, BID × 28, day 28
Procedure: A subcutaneous xenograft tumor model of human ovarian cancer RKN (derived from uterine leiomyosarcoma) cells was established in Balb/c nude mice. RKN tumor cells resuspended in Ham's F12 medium were inoculated subcutaneously on the right side of the experimental animals at 5×10^6 + gel/0.1 mL. When the tumor grew to about 150-200 mm^3, 20 animals having relatively uniform tumor volumes were selected for group administration, with a total of 4 groups, 5 animals in each group. On the day of the experiment, the animals were given the corresponding drugs according to the groups. The first group G1 was set as a solvent group, and 50 mM citrate buffer (pH 5.0) + 10% Captisol was given by gavage alone. The second group G2 was given a 50 mM citrate buffer (pH 5.0) + 10% Captisol of compound 21. The third group G3 was given a 50 mM citrate buffer (pH 5.0) + 10% Captisol of compound 26. The fourth group G4 was given a 50mM citrate buffer (pH 5.0) + 10% Captisol of compound 31. Table 7: Study on effect of test substances on animal tumor size in the human ovarian cancer RKN mouse xenograft tumor model
as §1, §2

LoVo (KRAS G13D) = experiment: 3D cell proliferation inhibition test (CellTiter-Glo 3D, 7 days), LoVo; assay type: cell-based; details: Homo sapiens, 168 h, read-out: Inhibitory activity on cell proliferation (IC50) LoVo (KRAS G13D)
Procedure: as §3
as §4, with “reader. […]” for “reader.”

Compound | inhibitory effects on human colon cancer GP2D mouse xenograft tumors [1] | Tumor volume inhibition rate (TGI) [1] [%] | IC50 ([2]; Homo sapiens, AGS, 3 h) [nM] | IC50 (GP2D (KRASG12D)) [nM] | inhibitory effects on human ovarian cancer RKN mouse xenograft tumors [3] | Tumor volume inhibition rate (TGI) [3] [%] | IC50 (LoVo (KRAS G13D)) [nM] | IC50 [2] [nM]
CC1(O)COCCN(c2nc(OCC34CCCN3C(c3cc(F)c(F)c(F)c3)CC4)nc3c(F)c(-c4cccc5sc(N)c(C#N)c45)c(Br)cc23)C1 (single isomer, unassigned) [Example 26, 2-amino-4-[6-bromo-8-fluoro-4-(6-hydroxy-6-methyl-1,4-oxazepan-4-yl)-2-({[3-(3,4,5-trifluoropheny 1)-2,3,5,6,7,7a-hexahydro-1H-pyrrolizin-7a-yl]methyl}oxy)quinazolin-7-yl]benzo[b]thiophene-3-carb onitrile] | significant inhibitory effects | 72.7 | 2.7 | 2.99 | significant inhibitory effects | 116 | 14.2 | –
CC1(O)COCCN(c2nc(OCC34CCCN3C(c3cc(F)c(F)c(F)c3)CC4)nc3c(F)c(-c4cccc5sc(N)c(C#N)c45)c(I)cc23)C1 (single isomer, unassigned) [Example 31, 2-amino-4-[6-iodo-8-fluoro-4-(6-hydroxy-6-methyl-1,4-oxazepan-4-yl)-2-({[3-(3,4,5-trifluorophenyl)-2,3,5,6,7,7a-hexahydro-1H-pyrrolizin-7a-yl]methyl}oxy)quinazolin-7-yl]benzo[b]thiophene-3-carbonitrile] | significant inhibitory effects | 86.7 | – | 1.75 | significant inhibitory effects | 116 | 20.6 | 1.9
